Data on six compounds can be found in BindingDB's records for doi:10.1021/jm990447m (Metabasis Therapeutics, 2000).

A short description of this experiment: Evaluated for the inhibition of porcine heart or human L-type Adenosine 5'-monophosphate deaminase (AMPDA).
As for `CCCCCCCCn1cnc2c1N=CNCC2O` (stereo unspecified) [3-Octyl-3,6,7,8-tetrahydro-imidazo[4,5-d][1,3]diazepin-8-ol 0.25H2O], the Ki (usually the equilibrium dissociation constant of an inhibitor or competing ligand from its target) was 18 µM.
The same measure for `N#CCCCCCCn1cnc2c1N=CNCC2O` (stereo unspecified) [7-(8-Hydroxy-7,8-dihydro-6H-imidazo[4,5-d][1,3]diazepin-3-yl)-heptanenitrile]: 170 µM; for `CCCCCCCn1cnc2c1N=CNCC2O` (stereo unspecified) [3-Heptyl-3,6,7,8-tetrahydro-imidazo[4,5-d][1,3]diazepin-8-ol]: 10 µM.
For the compound `O=C(O)CCCCCCCn1cnc2c1N=CNCC2O` (stereo unspecified) [8-(8-Hydroxy-7,8-dihydro-6H-imidazo[4,5-d][1,3]diazepin-3-yl)-octanoic acid], affinity was put at a Ki of 8 µM.
Consider `COC(=O)CCCCCCCn1cnc2c1N=CNCC2O` (stereo unspecified) [8-(8-Hydroxy-7,8-dihydro-6H-imidazo[4,5-d][1,3]diazepin-3-yl)-octanoic acid methyl ester], for which the Ki is 20 µM.
`O=C(O)CCCOCn1cnc2c1N=CNCC2O` (stereo unspecified) [Sodium; 4-(8-hydroxy-7,8-dihydro-6H-imidazo[4,5-d][1,3]diazepin-3-ylmethoxy)-butyrate H2O]: the Ki was 85 µM.
